Laboratory results as given in publication PMC9023544, “Ketone-selenoesters as potential anticancer and multidrug resistance modulation agents in 2D and 3D ovarian and breast cancer in vitro models” (Scientific Reports, 2022).

Assays:
[1] = tested on: HEK293 (human embryonic kidney cell line); assay: Cytotoxic activity, non-cancerous cell line, resazurin, 72 h; type: cell-based; settings: for IC50: Homo sapiens, HEK293, 72 h, mean ± SEM, n=3
Method: (§1) The cytotoxic potential of selenoesters was tested on several cancer cell lines—HOC (human parental ovarian adenocarcinoma, HOC, A2780, Sigma-Aldrich), HOC/ADR (sub-line resistant to Adriamycin, A2780/ADR, Sigma-Aldrich), MCF-7 (human breast adenocarcinoma, ATCC®, HTB-22TM), MCF-7/PAX (resistant sub-line established by gradual adaptation of parental cells to increased concentration of paclitaxel; kindly provided by Division of Cell and Molecular Biology, Third Faculty of Medicine, Charles University, Czech Republic) and on one non-cancerous cell line—HEK293 (human embryonic kidney cell line, Leibniz Institute, DSMZ-German Collection of Microorganisms and Cell Cultures GmbH). All mentioned cell lines were authenticated using short tandem repeat (STR) profiling. Cell lines were cultivated in DMEM medium (10% FBS, 1× antibiotic antimycotic solution), except for HEK293 cell line which was cultivated without antibiotics. In case of the resistant cell lines, the medium was supplemented with a required concentration of cytostatics to maintain resistance (HOC/ADR—100 nM Adriamycin; MCF-7/PAX—300 nM paclitaxel). All cells were cultivated in a CO2 incubator (5% CO2, 37 °C, Thermo Fisher Scientific).
(§2) For the experiment, the cells at passage number 5–20 were seeded at a 1 × 10^5 cells/mL concentration into 96-well plates to 100 µL final volume. The final concentration range of the compounds was 0.63–20 µM. After an incubation of 72 h, the plates were washed 1× with PBS and resazurin solution (0.03 mg/mL in 1× PBS) was added. After 1 h of incubation, the fluorescence signal was recorded (ex./em. 560/590 nm).
(§3) The selectivity index (SI) was determined as the ratio of IC50 value for the non-cancerous cells to IC50 for the cancer cell line. For resistant cell lines, the collateral sensitivity (CS) was calculated as the ratio of IC50 value in sensitive tumour cells to IC50 in the resistant cancer cell line. In both cases, the selectivity is considered as: (1) strongly selective when SI or CS value is above 6, (2) moderately selective when SI or CS is between 3 and 6, (3) slightly selective when SI or CS is between 1 and 3 and (4) non-selective when SI or CS is less than 1[23].

HOC spheroids = assay: Cytotoxic activity against 3D models, CellTiter-Glo 3D; type: cell-based; settings: Homo sapiens; 72 h old spheroids, 72 h incubation, n=4
Method: (§4) The ability of selenoesters to affect the formation of spheroids was described in the previous section. Subsequently, we have tested the cytotoxic potential of selenoesters in preformed 72 h old spheroids. Both sensitive and resistant mature breast and ovarian cells spheroids were incubated in the presence of selenoesters in a concentration range 1.6–100 µM. […] A safe concentration of selenoesters has been established based on the results of sensitization of drug-resistant 3D models.
(§5) Human ovarian and breast cancer cells (HOC, MCF-7, parental and resistant) were seeded in ultra-low attachment 96-well plates (Sigma-Aldrich) at a cell density of 0.5 × 10^5 cells/mL. After 3 days of spheroid formation, plates were carefully washed once with PBS and fresh DMEM medium (99 µL) was added. Using a binary compound dilution, the concentration range of the K3, K4, K7 compounds was prepared in new 96-well plates (0.16–10 mM). After 1 µL compound transfer, the final concentration range of compounds was 1.6–100 µM. The required volume of DMSO (1% V/V) was added to the positive control. After 72 h of incubation, 100 µL of CellTiter-Glo 3D Re-agent (Promega) was added to each well. Spheroid plates were incubated for 25 min at room temperature. Subsequently, the luminescent signal was recorded by detector (SpectraMax i3x Multi-Mode Microplate reader with MiniMax Imaging Cytometer, Molecular Devices).

HOC/ADR spheroids = assay: as above; type: cell-based; settings: Homo sapiens; 72 h old spheroids, 72 h incubation, n=4
Method: as §4, §5

MCF-7/PAX spheroids = assay: as above; type: cell-based; settings: Homo sapiens, MCF7; 72 h old spheroids, 72 h incubation, n=4
Method: as §4, §5

MCF-7 spheroids = assay: as above; type: cell-based; settings: Homo sapiens, MCF7; 72 h old spheroids, 72 h incubation, n=4
Method: as §4, §5

HOC/ADR = assay: Sensitization of MDR cell line to Adriamycin; type: cell-based, human; settings: IC50 of Adriamycin / IC50 of Adriamycin with IC10 dose of compound
Method: To determine the sensitization potential of compounds, HOC/ADR and MCF-7/PAX were used. Based on the cytotoxic potential of the compounds against several cancer and non-cancerous cell lines (Table 1), the concentrations of applied compounds were adjusted. IC10 values was considered as the concentrations, which should not decrease the cell viability under 90%. After the addition of compounds, Adriamycin (concentration range 0.1–20 µM) and paclitaxel (concentration range 0.1–10 µM) were added to HOC/ADR and MCF-7/PAX, respectively. The sensitization potential of the compounds was determined as the ratio of the IC50 of cytostatic agent (Adriamycin/paclitaxel) to the IC50 of cytostatic agent affected by the compound in concentration corresponding to the IC10 value. Fold change greater than 1 indicated synergic effect of cytostatic agent and the tested compound.
After that, the plates were washed 1× with PBS and fresh DMEM medium supplemented with tested compounds at final concentration corresponding their IC10 value was added, except for positive control wells. Subsequently, Adriamycin (concentration range 0.1–20 µM) or paclitaxel (concentration range 0.1–10 µM) was added to the appropriate cell line for 72 h. After incubation, the cells were washed 1× with PBS and the resazurin solution (0.03 mg/mL) was added to evaluate the cell viability as described above. IC50 values of cytostatics were calculated for both the control and compounds; a fold change was counted up. When this fold change is higher than 1 indicates a synergism between the tested cytostatic agent and the compound, while a fold change lower than 1 means an antagonism. Fold change=IC50value of cytostatic treated cells only/IC50value of cytostatic treated cells in addition of the compound

[2] = tested on: MCF-7/PAX (paclitaxel-resistant sub-line); assay: Cytotoxic activity, 2D, resazurin, 72 h; type: cell-based, human; settings: for IC50: Homo sapiens, MCF7, 72 h, read-out: MCF-7/PAX IC50; for SI HEK293/MC7-7/PAX: IC50 HEK293 / IC50 MCF-7/PAX; for CS (collateral sensitivity index): IC50 MCF-7 / IC50 MCF-7/PAX; for IC10 of compounds: MCF-7/PAX
Method: as §1, §2, §3

[3] = tested on: HOC/ADR (sub-line resistant to Adriamycin, A2780/ADR); assay: Cytotoxic activity, 2D, resazurin, 72 h; type: cell-based, human; settings: for IC50 / IC10: Homo sapiens, A2780 ADR, 72 h; for IC50: read-out: HOC/ADR IC50; for IC10: read-out: IC10 of compounds; for SI HEK293/HOC/ADR: IC50 HEK293 / IC50 HOC/ADR; for CS (collateral sensitivity index): IC50 HOC / IC50 HOC/ADR
Method: as §1, §2, §3

[4] = tested on: HOC (human parental ovarian adenocarcinoma, A2780); assay: Cytotoxic activity, 2D, resazurin, 72 h; type: cell-based; settings: for IC50: Homo sapiens, A2780, 72 h, read-out: HOC IC50; for SI HEK293/HOC: IC50 HEK293 / IC50 HOC
Method: as §1, §2, §3

[5] = tested on: MCF-7 (human breast adenocarcinoma); assay: Cytotoxic activity, 2D, resazurin, 72 h; type: cell-based; settings: for IC50: Homo sapiens, MCF7, 72 h, read-out: MCF-7 IC50; for SI HEK293/MCF-7: IC50 HEK293 / IC50 MCF-7
Method: as §1, §2, §3

CC(=O)C[Se]C(=O)c1ccccc1C(F)(F)F [K4]
IC50 [1]: 5400 ± 400 nM | selectivity indexes between HEK293 and cancer cell lines ([1]; all cancer cell lines tested): highest selectivity | IC50 (HOC spheroids): 3100 ± 100 nM | IC50 (HOC/ADR spheroids): 10500 ± 500 nM | IC50 (MCF-7/PAX spheroids): 4800 ± 300 nM | IC50 (MCF-7 spheroids): 2100 nM | Fold change (HOC/ADR): (1.4 ± 0.1)× | IC50 [2]: 3300 ± 300 nM | SI HEK293/MC7-7/PAX [2]: 1.6 ± 0.2 | CS (collateral sensitivity index) [2]: 0.6 ± 0.0 | IC10 of compounds [2]: 1800 nM | IC50 [3]: 3600 ± 100 nM | IC10 [3]: 2900 nM | SI HEK293/HOC/ADR [3]: 1.5 ± 0.2 | CS (collateral sensitivity index) [3]: 0.6 ± 0.0 | IC50 [4]: 2200 ± 100 nM | SI HEK293/HOC [4]: 2.5 ± 0.2 | IC50 [5]: 1800 ± 100 nM | SI HEK293/MCF-7 [5]: 2.9 ± 0.3

CC(=O)C[Se]C(=O)c1ccc(Br)cc1 [K3]
IC50 [1]: 2400 nM | IC50 (HOC spheroids): 1700 ± 100 nM | IC50 (HOC/ADR spheroids): 3900 ± 200 nM | IC50 (MCF-7/PAX spheroids): 4000 ± 100 nM | IC50 (MCF-7 spheroids): 2500 ± 200 nM | Fold change (HOC/ADR): (1.4 ± 0.1)× | IC50 [2]: 2100 ± 100 nM | SI HEK293/MC7-7/PAX [2]: 1.1 ± 0.1 | CS (collateral sensitivity index) [2]: 1.0 ± 0.3 | IC10 of compounds [2]: 1200 nM | IC50 [3]: 2600 ± 100 nM | IC10 [3]: 2000 nM | SI HEK293/HOC/ADR [3]: 0.9 ± 0.0 | CS (collateral sensitivity index) [3]: 0.7 ± 0.1 | IC50 [4]: 1800 nM | SI HEK293/HOC [4]: 1.3 ± 0.0 | IC50 [5]: 2000 ± 500 nM | SI HEK293/MCF-7 [5]: 1.2 ± 0.3

CC(=O)C[Se]C(=O)c1ccc(C(C)(C)C)cc1 [K7]
IC50 [1]: 1500 ± 100 nM | IC50 (HOC spheroids): 2800 ± 100 nM | IC50 (HOC/ADR spheroids): 10100 ± 500 nM | IC50 (MCF-7/PAX spheroids): 7500 ± 200 nM | IC50 (MCF-7 spheroids): 2200 ± 300 nM | IC50 [2]: 2400 ± 100 nM | SI HEK293/MC7-7/PAX [2]: 0.6 ± 0.1 | CS (collateral sensitivity index) [2]: 0.8 ± 0.1 | IC10 of compounds [2]: 1300 nM | IC50 [3]: 3100 ± 300 nM | IC10 [3]: 1800 nM | SI HEK293/HOC/ADR [3]: 0.5 ± 0.1 | CS (collateral sensitivity index) [3]: 0.4 ± 0.1 | IC50 [4]: 1100 ± 100 nM | SI HEK293/HOC [4]: 1.7 ± 0.2 | IC50 [5]: 1900 ± 100 nM | SI HEK293/MCF-7 [5]: 0.8 ± 0.1
